“Also recorded” adds a separate entry of the source.
Molecular target: BoNT/A LC (Clostridium botulinum, UniProt P0DPI0)
Type: biochemical

Sequence of BoNT/A LC (P0DPI0 3-448, added parts left off): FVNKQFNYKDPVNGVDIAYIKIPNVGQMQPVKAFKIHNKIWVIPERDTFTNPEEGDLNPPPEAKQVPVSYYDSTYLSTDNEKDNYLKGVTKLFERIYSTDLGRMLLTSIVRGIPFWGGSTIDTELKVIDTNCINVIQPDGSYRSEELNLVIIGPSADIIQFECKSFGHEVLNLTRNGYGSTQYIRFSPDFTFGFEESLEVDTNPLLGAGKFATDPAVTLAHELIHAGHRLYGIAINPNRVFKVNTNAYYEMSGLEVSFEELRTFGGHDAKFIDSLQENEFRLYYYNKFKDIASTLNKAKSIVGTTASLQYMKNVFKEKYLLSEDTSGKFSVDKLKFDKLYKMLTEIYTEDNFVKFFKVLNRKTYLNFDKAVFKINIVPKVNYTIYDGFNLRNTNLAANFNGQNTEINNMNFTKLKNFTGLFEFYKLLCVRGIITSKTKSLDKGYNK

| Structure (SMILES) | effect on truncation and fragmentation of the LC |
| --- | --- |
| O=C(O)CN(CCN(CC(=O)O)CC(=O)O)CC(=O)O [EDTA] | failed to protect; also recorded: little effect on proteolysis |
| c1ccc(CN(CCN(Cc2ccccn2)Cc2ccccn2)Cc2ccccn2)nc1 [TPEN] | largely protected; also recorded: significantly reduced the rate of conversion of IA to IB |
